Measured values taken from the Kinase Knowledgebase extract (Sharma et al. 2016).
Where “and” joins values, the source holds several entries; their conditions need not be identical. Equal entries are not always repeated.

Target: CDK2 (UniProt P24941)
Experiment: Enzyme Assay

Row | IC50 | SMILES
1 | 0.1 to 100 nM | O=c1ccc(CNc2cc(-c3ccccc3F)nc3c(Br)cnn23)c[nH]1
2 | 0.1 to 100 nM | Brc1cnn2c(NCc3cccnc3)cc(C3CCOCC3)nc12
3 | 0.1 to 100 nM | CS(=O)(=O)N1CCCC(c2cc(NCc3cccnc3)n3ncc(Br)c3n2)C1 (centres undefined)
4 | 0.1 to 100 nM | Brc1cnn2c(NCc3ccc4[nH]cnc4c3)cc(C3CCNCC3)nc12
5 | 0.1 to 100 nM | CC(C)c1cc(NCc2ccc[n+]([O-])c2)n2ncc(Br)c2n1
6 | 0.1 to 100 nM | Brc1cnn2c(NCc3cccnc3)cc(C3CCCNC3)nc12 (centres undefined)
7 | 0.1 to 100 nM | CCc1cnn2c(NCc3ccc(OC)[n+]([O-])c3)cc(-c3ccccc3F)nc12
8 | 0.1 to 100 nM | CC(C)(O)[C@H]1CCCC[C@H]1c1cc(NCc2cccnc2)n2ncc(Br)c2n1
9 | 0.1 to 100 nM | OCC[C@@H]1CCCN1c1cc(NCc2cccnc2)n2ncc(Br)c2n1
10 | 0.1 to 100 nM | Oc1cc(CNc2cc(C3CCCCC3)nc3c(Br)cnn23)ccn1
11 | 0.1 to 100 nM | NC(=O)N1CCC(c2cc(NCc3cccnc3)n3ncc(Br)c3n2)CC1
12 | 0.1 to 100 nM | [O-][n+]1cccc(CNc2cc(-c3cccs3)nc3c(Br)cnn23)c1
13 | 0.1 to 100 nM | OC[C@H]1CCCC[C@H]1Nc1cc(NCc2cccnc2)n2ncc(Br)c2n1
14 | 0.1 to 100 nM | Brc1cnn2c(NCc3cccnc3)cc(-c3ccco3)nc12
15 | 32 nM and 24 nM | Fc1ccccc1-c1cc(NCc2ccncc2)n2ncc(Br)c2n1
16 | 0.1 to 100 nM | Fc1ccccc1-c1cc(NCc2ccc3[nH]cnc3c2)n2ncc(Br)c2n1
17 | 0.1 to 100 nM | [O-][n+]1cccc(CNc2cc(-c3ccc(Cl)cc3)nc3c(Br)cnn23)c1
18 | 0.1 to 100 nM | O=c1cc(CNc2cc(-c3ccccc3)nc3c(Br)cnn23)cc[nH]1
19 | 0.1 to 100 nM | CS(=O)(=O)N1CCC(c2cc(NCc3cccnc3)n3ncc(Br)c3n2)CC1
20 | 0.1 to 100 nM | [O-][n+]1cccc(CNc2cc(-c3ccccc3F)nc3c(Br)cnn23)c1
21 | 0.1 to 100 nM | CC(C)[C@H](CO)Nc1cc(NCc2ccc[n+]([O-])c2)n2ncc(Br)c2n1
22 | 0.1 to 100 nM | CC(C)(CO)Nc1cc(NCc2cccnc2)n2ncc(Br)c2n1

Row | IC50 | SMILES
23 | 0.1 to 100 nM | COc1c(Cl)cc(CNc2cc(-c3ccccc3)nc3c(Br)cnn23)c[n+]1[O-]
24 | 0.1 to 100 nM | O=C(C1CC1)N1CCC(c2cc(NCc3cccnc3)n3ncc(Br)c3n2)CC1
25 | 0.1 to 100 nM | OCC1(Nc2cc(NCc3cccnc3)n3ncc(Br)c3n2)CCCC1
26 | 0.1 to 100 nM | NC(=O)N1CCCC(c2cc(NCc3cccnc3)n3ncc(Br)c3n2)C1 (centres undefined)
27 | 0.1 to 100 nM | O=c1ccc(CNc2cc(C3CCCCC3)nc3c(Br)cnn23)c[nH]1
28 | 0.1 to 100 nM | [O-][n+]1cccc(CNc2cc(C3CCCCC3)nc3c(Br)cnn23)c1
29 | 0.1 to 100 nM | CC(=O)N1CCC(c2cc(NCc3cccnc3)n3ncc(Br)c3n2)CC1
30 | 0.1 to 100 nM | CCc1cnn2c(NCc3ccc[n+]([O-])c3)cc(-c3ccccc3F)nc12
31 | 0.1 to 100 nM | Cc1ccccc1-c1cc(NCc2ccc[n+]([O-])c2)n2ncc(Br)c2n1
32 | 0.1 to 100 nM | OCC1CCCCN1c1cc(NCc2cccnc2)n2ncc(Br)c2n1 (centres undefined)
33 | 0.1 to 100 nM | CC(C)(O)[C@@H]1CCCN1c1cc(NCc2cccnc2)n2ncc(Br)c2n1
34 | 0.1 to 100 nM | OCCC1CCCCN1c1cc(NCc2cccnc2)n2ncc(Br)c2n1 (centres undefined)
35 | 0.1 to 100 nM | [O-][n+]1cccc(CNc2cc(-c3ccco3)nc3c(Br)cnn23)c1
36 | 0.1 to 100 nM | Cn1cnc2cc(CNc3cc(-c4ccccc4)nc4c(Br)cnn34)ccc21
37 | 0.1 to 100 nM | Nc1ncc(CNc2cc(C3CCCNC3)nc3c(Br)cnn23)cn1 (centres undefined)
38 | 0.1 to 100 nM | Brc1cnn2c(NCc3cccnc3)cc(C3CCNCC3)nc12
39 | 0.1 to 100 nM | [O-][n+]1cccc(CNc2cc(-c3ccccc3)nc3c(Br)cnn23)c1
40 | 0.1 to 100 nM | CCc1cnn2c(NCc3ccc[n+]([O-])c3)cc(-c3ccccc3)nc12
41 | 0.1 to 100 nM | O=c1ccc(CNc2cc(-c3ccccc3)nc3c(Br)cnn23)c[nH]1
42 | 0.1 to 100 nM | Brc1cnn2c(NCc3cccnc3)cc(C3CCCCC3)nc12
43 | 0.1 to 100 nM | CC1(C)[C@@H]2[C@@H](CO)N(c3cc(NCc4cccnc4)n4ncc(Br)c4n3)C[C@@H]21
44 | 0.1 to 100 nM | Brc1cnn2c(NCc3ccc4[nH]cnc4c3)cc(C3CCCCC3)nc12

Row | IC50 | SMILES
45 | 0.1 to 100 nM | CCOc1ccc(CNc2cc(-c3ccccc3)nc3c(Br)cnn23)c[n+]1[O-]
46 | 0.1 to 100 nM | CCc1cnn2c(NCc3ccc[n+]([O-])c3)cc(C3CCCCC3)nc12
47 | 0.1 to 100 nM | CC(C)(O)[C@@H]1CCCN1c1cc(NCc2ccc[n+]([O-])c2)n2ncc(Br)c2n1
48 | 0.1 to 100 nM | [O-][n+]1cccc(CNc2cc(C3CCNCC3)nc3c(Br)cnn23)c1
49 | 0.1 to 100 nM | CNC(=O)c1ccc(CNc2cc(-c3ccccc3F)nc3c(Br)cnn23)cc1
50 | 0.1 to 100 nM | [O-][n+]1cccc(CNc2cc(C3CCOCC3)nc3c(Br)cnn23)c1
51 | 140 nM | CN1CCN(c2cc(NCc3cccnc3)n3ncc(Br)c3n2)CC1
52 | 0.1 to 100 nM | N[C@H]1CC[C@H](Nc2cc(NCc3cccnc3)n3ncc(Br)c3n2)CC1
53 | 0.1 to 100 nM | OC[C@H]1CCCC[C@H]1c1cc(NCc2cccnc2)n2ncc(Br)c2n1
54 | 0.1 to 100 nM | CCc1cnn2c(NCc3cccnc3)cc(-c3ccccc3)nc12
55 | 0.1 to 100 nM | CC(C)Oc1ccc(CNc2cc(-c3ccccc3F)nc3c(Br)cnn23)c[n+]1[O-]
56 | 0.1 to 100 nM | Brc1cnn2c(NCc3ccc(-c4csnn4)cc3)cc(C3CCNCC3)nc12
57 | 0.1 to 100 nM | [O-][n+]1cccc(CNc2cc(N3CCC[C@H]3CO)nc3c(Br)cnn23)c1
58 | 0.1 to 100 nM | CCc1cnn2c(NCc3ccnc(O)c3)cc(-c3ccccc3)nc12
59 | 0.1 to 100 nM | CC(C)[C@@H](CO)Nc1cc(NCc2ccc[n+]([O-])c2)n2ncc(Br)c2n1
60 | 0.1 to 100 nM | [O-][n+]1cccc(CNc2cc(-c3ccccc3Cl)nc3c(Br)cnn23)c1
61 | 0.1 to 100 nM | Brc1cnn2c(NCc3cccnc3)cc(-c3ccccc3)nc12
62 | 0.1 to 100 nM | [O-][n+]1cc(CNc2cc(-c3ccccc3)nc3c(Br)cnn23)ccc1OCC(F)(F)F
63 | 0.1 to 100 nM | COc1ccc(CNc2cc(-c3ccccc3F)nc3c(Br)cnn23)c[n+]1[O-]
64 | 0.1 to 100 nM | CC(=O)N1CCCC(c2cc(NCc3cccnc3)n3ncc(Br)c3n2)C1 (centres undefined)
